# Data as given in ChEMBL document CHEMBL6121009, “Identification of a selective pyruvate dehydrogenase kinase 1 (PDHK1) chemical probe by virtual screening” (Eur J Med Chem, 2025).
# Columns and labels:
# [1] = target: [Pyruvate dehydrogenase (acetyl-transferring)] kinase isozyme 4, mitochondrial (Homo sapiens, UniProt Q16654)
# Description: Inhibition of human PDHK4 using myelin basic protein as substrate pre-incubated for 20 min followed by addition of [gamma-33P]-ATP measured after 2 hrs by Radiometric Hotspot kinase assay
# [2] = target: [Pyruvate dehydrogenase (acetyl-transferring)] kinase isozyme 2, mitochondrial (Homo sapiens, UniProt Q15119)
# Description: Inhibition of human PDHK2 using PDHKtide and Mn2+ as substrates pre-incubated for 20 min followed by addition of [gamma-33P]-ATP measured after 2 hrs by Radiometric Hotspot kinase assay
# [3] = target: [Pyruvate dehydrogenase (acetyl-transferring)] kinase isozyme 3, mitochondrial (Homo sapiens, UniProt Q15120)
# Chain of [Pyruvate dehydrogenase (acetyl-transferring)] kinase isozyme 3, mitochondrial (Q15120 whole entry): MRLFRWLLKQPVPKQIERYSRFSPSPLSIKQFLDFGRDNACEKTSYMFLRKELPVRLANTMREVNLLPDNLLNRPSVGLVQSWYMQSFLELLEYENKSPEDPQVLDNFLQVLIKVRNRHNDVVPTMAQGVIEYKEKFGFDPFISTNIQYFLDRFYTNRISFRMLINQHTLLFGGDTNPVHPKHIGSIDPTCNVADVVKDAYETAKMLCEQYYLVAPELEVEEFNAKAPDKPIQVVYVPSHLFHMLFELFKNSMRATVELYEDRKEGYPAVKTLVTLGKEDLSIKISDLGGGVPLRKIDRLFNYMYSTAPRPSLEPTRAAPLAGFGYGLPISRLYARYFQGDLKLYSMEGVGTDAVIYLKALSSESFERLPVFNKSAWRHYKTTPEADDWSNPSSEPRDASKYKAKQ
# Description: Inhibition of human PDHK3 using myelin basic protein as substrate pre-incubated for 20 min followed by addition of [gamma-33P]-ATP measured after 2 hrs by Radiometric Hotspot kinase assay
# Chain of [Pyruvate dehydrogenase (acetyl-transferring)] kinase isozyme 4, mitochondrial (Q16654 whole entry): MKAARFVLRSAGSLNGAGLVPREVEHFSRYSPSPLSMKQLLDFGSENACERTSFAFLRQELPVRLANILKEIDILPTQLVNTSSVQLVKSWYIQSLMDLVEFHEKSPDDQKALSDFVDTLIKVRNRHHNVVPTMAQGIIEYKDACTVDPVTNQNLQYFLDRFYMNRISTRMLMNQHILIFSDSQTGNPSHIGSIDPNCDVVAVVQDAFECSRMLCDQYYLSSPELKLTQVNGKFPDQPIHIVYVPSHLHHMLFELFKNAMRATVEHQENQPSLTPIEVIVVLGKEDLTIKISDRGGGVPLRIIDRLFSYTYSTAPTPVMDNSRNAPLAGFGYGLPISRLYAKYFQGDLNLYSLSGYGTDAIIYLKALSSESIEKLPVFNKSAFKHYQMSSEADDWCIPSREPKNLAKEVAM
Compound,IC50 [1],IC50 [2],IC50 [3]
O=C(O)c1ccc(Br)c(NS(=O)(=O)c2ccc(Cl)s2)c1,> 30 µM,> 30 µM,> 30 µM
O=C(O)c1ccc(Br)c(NS(=O)(=O)c2cc(Cl)cc(Cl)c2)c1,17 µM,> 30 µM,> 30 µM
CSc1ccc(C(=O)O)cc1NS(=O)(=O)c1cc(Cl)ccc1C,> 30 µM,> 30 µM,> 30 µM
Cc1ccc(Cl)cc1S(=O)(=O)Nc1cc(C#N)ccc1Br,15.5 µM,> 30 µM,> 30 µM
O=C(O)C(Cl)Cl [DICHLOROACETIC ACID],108 µM,> 5000 µM,> 5000 µM
COc1cc(C(=O)O)cc(NS(=O)(=O)c2cc(Cl)ccc2C)c1Cl,> 30 µM,> 30 µM,> 30 µM
Cc1ccc(Cl)cc1S(=O)(=O)Nc1cc(C(=O)O)ccc1Br,30 µM,> 30 µM,> 30 µM
Cc1ccc(Cl)cc1S(=O)(=O)Nc1cc(Br)cc(C(=O)O)c1,23.6 µM,> 30 µM,> 30 µM
